Data reported in US20210100834A1, “COMPOSITION CONTAINING A CHLORIDE SALT FOR USE IN PREGNANT ANIMALS” (Nutreco IP Assets B.V., priority 2017, published 2021).

Tested on: pregnant sows
Assay: Drinking water treatment of pregnant sows with calcium chloride and phosphoric acid, perinatal phenomena
Format: in vivo
Description: In another experiment, cations and anions were added to drinking water in such a balance, that the daily cation/anion balance of diet plus drinking water was reduced. For this, the drinking water contained 1.5 g calcium chloride per liter. […] In this experiment, next to the calcium chloride to reduce the daily cation/anion balance, a calcium binder (phosphoric acid, PhA)) was added in a concentration of 0.01 mol/liter.
It is believed that binding of dietary calcium in the gut and the inherent effect of reducing the amount of calcium available to the animal has as a consequence that the animal is triggered to mobilise calcium from its own mineral reserves in the bones. Therefore, when demand for calcium is increased as in parturition, the animal is more prepared to face this demand, and better equipped to maintain blood Ca levels.

O=P(O)(O)O [PhA, phosphoric acid]
Postnatal mortality (in vivo): 9.4%
effect of addition of calcium binder on perinatal mortality (in vivo): no negative effect
Piglets with colostrum intake <250 g/24 h (treated drinking water): 15.1%
Average colostrum intake per piglet (treated drinking water, calculated from weight gain): 408 g/24 h
